US6900233B2, “Substituted 3-phenyl-5-alkoxy-3H-(1,3,4)-oxadiazol-2-ones, pharmaceutical composition and method for treating obesity thereof” (Aventis Pharma Deutschland GmbH, priority 2002, dated 2005)

Columns and labels:
pancreatic lipase (PL) = biological target: T1, pancreatic lipase (PL) (Sus scrofa, UniProt P00591); assay: Pancreatic lipase enzyme assay (release of radiolabeled oleate from tripalmitin/glycerol tri[3H]oleate substrate); format: biochemical; settings: enriched preparation from porcine pancreas, 30° C., 30 min, up to 8 concentrations
T1 construct: Enriched preparation from porcine pancreas; purchased Sigma L-0382; host or cells: porcine pancreas (tissue preparation)
T1 sequence (P00591 1-450): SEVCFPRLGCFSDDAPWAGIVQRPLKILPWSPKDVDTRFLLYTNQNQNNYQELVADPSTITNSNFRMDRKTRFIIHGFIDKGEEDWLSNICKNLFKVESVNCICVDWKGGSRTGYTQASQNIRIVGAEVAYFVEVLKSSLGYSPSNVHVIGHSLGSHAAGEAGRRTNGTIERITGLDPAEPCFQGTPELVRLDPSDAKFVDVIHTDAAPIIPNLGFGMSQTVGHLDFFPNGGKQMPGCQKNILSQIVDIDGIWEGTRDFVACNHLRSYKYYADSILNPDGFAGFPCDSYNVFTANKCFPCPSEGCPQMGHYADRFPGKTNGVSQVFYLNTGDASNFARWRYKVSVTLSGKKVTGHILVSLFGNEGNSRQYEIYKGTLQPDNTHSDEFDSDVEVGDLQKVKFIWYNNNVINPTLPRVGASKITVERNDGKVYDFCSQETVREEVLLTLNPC
Description: The effect of the compounds according to the invention of formula 1 was tested using the following enzyme assay system: [lacuna]
The activity of the compounds was assayed as follows:
1. Preparation of the Substrate:
80 μL of tripalmitin (85 mM in chloroform) are mixed with 5 μL of glycerol tri[9,10(n)-^3H]oleate (5 mCi/mL in toluene) in a 12 mL polypropylene vessel. Evaporation in a rotary evaporator (50° C.) and addition of 4 mL of 200 mM Tris/HCl (pH 7.6), 0.8% TX-100 are followed by ultrasound treatment of the mixture (Branson B-12 sonifier, output level 4, 3×2 min with 1 min intervals on ice) until a homogeneous milky suspension is produced.
Lipase buffer: 80 mM Tris/HCl (pH 7.6), 600 mM NaCl, 8 mM CaCl2, 8 mM benzamidine, 2 mM Pefabloc (Roche Biochemicals) (add the inhibitors only on the day of the assay)
Pancreatic lipase: Enriched preparation from porcine pancreas (Sigma order No. L-0382) dissolved in lipase buffer (100 000 units/500 μL)
5 μL of test substance (in 100% DMSO) or DMSO (control) are mixed with 10 μL of substrate and 5 μL of lipase (in this sequence) and incubated at 30° C. (Eppendorf Thermomixer, 350 min^−1) for 30 min. After addition of 325 μL of methanol/chloroform/n-heptane (10/9/7) and 105 μl of 0.1 M K2CO3, 0.1 M H3BO3 (pH 10.5 adjusted with 1 M KOH) and vigorous mixing, the phases are separated by centrifugation (8000 rpm, Eppendorf centrifuge, 4° C.). 140 μL portions of the aqueous supernatant (contains the liberated radiolabeled oleate; 70% recovery) are transferred into 20 mL scintillation vials and mixed with 6 mL of scintillation cocktail (Beckman ReadySafe). After vigorously mixing and incubating at room temperature for 2 h, the radioactivity is measured in a liquid scintillation counter (Beckman, L8008, tritium channel with quench curve, measurement time 20 min).
Substances are routinely tested in each concentration in three independent incubation mixtures each with duplicate determination after phase separation (SD<0.02). Background values (reaction under the same conditions but without lipase) are subtracted from all values (corresponds predominantly to the content of glycerol trioleate or free oleate in the substrate preparation in the aqueous phase, <5% of the radioactivity employed). The inhibition of the pancreatic lipase enzymatic activity by a test substance is determined by comparison with an uninhibited control reaction (presence of lipase=0% inhibition; absence of lipase 100% inhibition in each case after background correction). The IC50 is calculated from an inhibition plot with up to 8 concentrations of the test substance. The software package GRAPHIT (Elsevier-BIOSOFT) is used for curve fitting and IC50 determination.

| SMILES | melting point [°C] | IC50 (pancreatic lipase (PL)) [nM] |
| --- | --- | --- |
| CCCCCCCCCCCCOc1nn(-c2cccc(C(F)(F)F)c2)c(=O)o1 [Example 35, 5-(Dodecyloxy)-3-(3-trifluoromethyl-phenyl)-3H-(1,3,4)-oxadiazol-2-one] | 43 | – |
| CCCCCCCCCCCCCCCCOc1nn(-c2ccc(OC(F)(F)F)cc2)c(=O)o1 [Example 2, 5-Hexadecyloxy-3-(4-trifluoromethoxy-phenyl)-3H-(1,3,4)-oxadiazol-2-one] | 56 | 250 |
| CCCCCCCCCCCCCCCCCCCCCCOCCOc1nn(-c2ccc(OC(F)(F)F)cc2)c(=O)o1 [Example 25, 5-(Docosyloxy-ethoxy)-3-(4-trifluoromethoxy-phenyl)-3H-(1,3,4)-oxadiazol-2-one] | 71 | – |
| CCCCCCCCCCCCCCCCOc1nn(-c2cccc(OC(F)(F)F)c2)c(=O)o1 [Example 4, 5-Hexadecyloxy-3-(3-trifluoromethoxy-phenyl)-3H-(1,3,4)-oxadiazol-2-one] | 53 | 2500 |
| CCCCCCCCCCCCCCCCOc1nn(-c2cccc(F)c2)c(=O)o1 [Example 8, 5-Hexadecyloxy-3-(3-fluoro-phenyl)-3H-(1,3,4)-oxadiazol-2-one] | 58 | – |
| CCCCCCCCOc1nn(-c2ccc(OC(F)(F)F)cc2)c(=O)o1 [Example 3, 5-Octyloxy-3-(4-trifluoromethoxy-phenyl)-3H-(1,3,4)-oxadiazol-2-one] | – | 350 |
| O=c1oc(OCCc2ccc(F)cc2)nn1-c1ccc(OC(F)(F)F)cc1 [Example 21, 5-(2-(4-Fluorophenyl)-ethoxy)-3-(4-trifluoromethoxy-phenyl)-3H-(1,3,4)-oxadiazol-2-one] | 60 | – |
| CCCCCCCCCCCCOc1nn(-c2ccc(OC(F)(F)F)cc2)c(=O)o1 [Example 1, 5-Dodecyloxy-3-(4-trifluoromethoxy-phenyl)-3H-(1,3,4)-oxadiazol-2-one] | – | 30 |
| CCCCCCCCCCCOc1nn(-c2ccc(OC(F)(F)F)cc2)c(=O)o1 [Example 15, 5-Undecyloxy-3-(4-trifluoromethoxy-phenyl)-3H-(1,3,4)-oxadiazol-2-one] | 38 | 600 |
| CCCCCCCCCCCCOc1nn(-c2cc(Cl)cc(Cl)c2)c(=O)o1 [Example 31, 5-(Dodecyloxy)-3-(3,5-dichloro-phenyl)-3H-(1,3,4)-oxadiazol-2-one] | 48 | – |
| CCCCCCCCCCCCCCOc1nn(-c2ccc(OC(F)(F)F)cc2)c(=O)o1 [Example 16, 5-Tetradecyloxy-3-(4-trifluoromethoxy-phenyl)-3H-(1,3,4)-oxadiazol-2-one] | 46 | – |
| CCCCCCCCCCCCOc1nn(-c2ccc(Cl)c(Cl)c2)c(=O)o1 [Example 30, 5-(Dodecyloxy)-3-(3,4-dichloro-phenyl)-3H-(1,3,4)-oxadiazol-2-one] | 74 | – |
| CCCCCCCCCCCCCCCCOc1nn(-c2ccc(OC)cc2)c(=O)o1 [Example 12, 5-Hexadecyloxy-3-(4-methoxy-phenyl)-3H-(1,3,4)-oxadiazol-2-one] | 66 | – |
| CCCCCCCCCCCCCCCCOc1nn(-c2ccccc2)c(=O)o1 [Example 10, 5-Hexadecyloxy-3-phenyl-3H-(1,3,4)-oxadiazol-2-one] | 63 | – |
| CCCCCCCCCCCCOc1nn(-c2ccc(OC(F)(F)F)cc2)c(=O)o1 [Example 29, 5-(Dodecyloxy)-3-(4-trifluoromethoxy-phenyl)-3H-(1,3,4)-oxadiazol-2-one] | 41 | – |
| CCCCCCCCCCCCCCCCOc1nn(-c2ccc(Oc3ccc(Cl)cc3)cc2)c(=O)o1 [Example 5, 5-Hexadecyloxy-3-(4-(4-chlorophenoxy)-phenyl)-3H-(1,3,4)-oxadiazol-2-one] | 52 | 2000 |
| CCCCCCCCCCCCCOc1nn(-c2ccc(OC(F)(F)F)cc2)c(=O)o1 [Example 17, 5-Tridecyloxy-3-(4-trifluoromethoxy-phenyl)-3H-(1,3,4)-oxadiazol-2-one] | 50 | – |
| CCCCCCCCOc1nn(-c2ccccc2)c(=O)o1 [Example 6, 5-Octyloxy-3-phenyl-3H-(1,3,4)-oxadiazol-2-one] | 38 | 900 |
| CC(C)CCC[C@@H](C)[C@H]1CC[C@H]2[C@@H]3CCC4C[C@@H](Oc5nn(-c6ccc(OC(F)(F)F)cc6)c(=O)o5)CC[C@]4(C)[C@H]3CC[C@]12C (some centres unmarked) | 127 | – |

Next, values leading:

| melting point [°C] | IC50 (pancreatic lipase (PL)) [nM] | SMILES |
| --- | --- | --- |
| 73 | – | CCCCCCCCCCCCCCCCOc1nn(-c2ccc(OCc3ccccc3)cc2)c(=O)o1 [Example 13, 5-Hexadecyloxy-3-(4-benzyloxy-phenyl)-3H-(1,3,4)-oxadiazol-2-one] |
| 63 | – | CCCCCCCCCCCCOc1nn(-c2ccc([N+](=O)[O-])cc2C)c(=O)o1 [Example 40, 5-(Dodecyloxy)-3-(2-methyl-4-nitro-phenyl)-3H-(1,3,4)-oxadiazol-2-one] |
| 65 | – | CCCCCCCCCCCCOc1nn(-c2ccc(OCc3ccccc3)cc2)c(=O)o1 [Example 37, 5-(Dodecyloxy)-3-(4-benzyloxy-phenyl)-3H-(1,3,4)-oxadiazol-2-one] |
| 44 | – | CCCCCCCCCCCCOc1nn(-c2cccc(F)c2)c(=O)o1 [Example 38, 5-(Dodecyloxy)-3-(3-fluoro-phenyl)-3H-(1,3,4)-oxadiazol-2-one] |
| 57 | – | CCCCCCCCCCCCOc1nn(-c2ccc(OC)cc2)c(=O)o1 [Example 33, 5-(Dodecyloxy)-3-(4-methoxy-phenyl)-3H-(1,3,4)-oxadiazol-2-one] |
| 62 | – | CCCCCCCCCCCCOc1nn(-c2ccc([N+](=O)[O-])c(C)c2)c(=O)o1 [Example 41, 5-(Dodecyloxy)-3-(3-methyl-4-nitro-phenyl)-3H-(1,3,4)-oxadiazol-2-one] |
| 71 | – | CCCCCCCCCCCCOc1nn(-c2ccc([N+](=O)[O-])c(OCc3ccc(F)cc3)c2)c(=O)o1 [Example 39, 5-(Dodecyloxy)-3-(3-(4-fluorobenzyloxy)-4-nitro-phenyl)-3H-(1,3,4)-oxadiazol-2-one] |
| 64 | – | CCCCCCCCCCCCOc1nn(-c2cccc([N+](=O)[O-])c2)c(=O)o1 [Example 34, 5-(Dodecyloxy)-3-(3-nitro-phenyl)-3H-(1,3,4)-oxadiazol-2-one] |
| 51 | – | CCCCCCCCCCCCOc1nn(-c2cccc(OC)c2)c(=O)o1 [Example 32, 5-(Dodecyloxy)-3-(3-methoxy-phenyl)-3H-(1,3,4)-oxadiazol-2-one] |
| 65 | – | CCCCCCCCCCCCCCCCOc1nn(-c2cccc(OCc3ccccc3)c2)c(=O)o1 [Example 9, 5-Hexadecyloxy-3-(3-benzyloxy-phenyl)-3H-(1,3,4)-oxadiazol-2-one] |
| 72 | – | CCCCCCCCCCCCCCCCOc1nn(-c2ccc([N+](=O)[O-])cc2)c(=O)o1 [Example 11, 5-Hexadecyloxy-3-(4-nitro-phenyl)-3H-(1,3,4)-oxadiazol-2-one] |
